Data on three compounds can be found in US6599529B1, “Modified release multiple-units compositions of non-steroid anti-inflammatory drug substances (NSAIDs)” (Nycomed Danmark A/S, priority 1997, dated 2003).

The conditions of data set [1]: in water and 0.1 N HCl at room temperature; cited from earlier work.
Data set [2] can be described thus: Solubility in 0.1 N HCl / water. Type of data set: physicochemical.
The conditions of data set [3]: cited from earlier work.

Take `CC(=O)Oc1ccccc1C(=O)O` [acetylsalicylic acid]: the “solubility (in words)” value in data set [1] is “practically insoluble”.

Turning to `COc1ccc2c(c1)c(CC(=O)O)c(C)n2C(=O)c1ccc(Cl)cc1` [indometacin], in data set [1], the “solubility (in words)” value is on record as “practically insoluble”.

With `CN1C(C(=O)Nc2ccccn2)=C(O)c2sc(Cl)cc2S1(=O)=O` [lornoxicam], the solubility entry in data set [2] (at a pH corresponding to 0.1 N HCl, room temperature) is recorded as “less than 1 mg/100 ml”; in data set [2] (in 0.1 N HCl (aqueous solution of 0.1 N hydrochloric acid)), less than 1 mg/100 ml. In data set [3], the pKa value entry is listed as “about 4.7”.
